Values of other authors, collected in publication PMC3079564 (Chemical biology & drug design, 2011).

Legend:
[1] = test system: recombinant HIV-1 carrying HIV-1YU2 envelope glycoproteins on Cf2Th-CCR5 cells lacking CD4
[2] = test system: gp120 from the YU2 strain

Structure (SMILES): CC1(C)CC(NC(=O)C(=O)Nc2ccc(Cl)cc2)CC(C)(C)N1 [NBD-556]
- enhancement of viral infectivity in CD4 negative cells [1]: three orders of magnitude
- -TΔS of binding to gp120 ([2]; 25 °C): 17.1 kcal/mol
- ΔH of binding to gp120 ([2]; 25 °C): -24.5 kcal/mol
- measured heat capacity change on binding to gp120 ([2]; NBD-556): -1.0 kcal/(K × mol)
